Laboratory results as given in publication PMC7187626 (Antimicrobial Agents and Chemotherapy, 2019).
Where two headings read alike, the source gives them in different places.

Experiments:
[1] = Noncompartmental pharmacokinetic analysis of plasma concentrations after single oral dose of artefenomel and DSM265 in combination; assay type: in vivo, human; conditions: for Cmax / AUC(0-t) / AUC(0-inf) / Vd/F / Tmax / half-life: human, plasma
Method: Plasma samples were analyzed by liquid chromatography-tandem mass spectrometry (HPLC-MS/MS) as previously described ([2], [4]). The PK parameters determined using noncompartmental analysis were the maximum plasma concentration (Cmax), the time point when Cmax was reached (tmax), the area under the concentration-time curve up to last time point measure (AUC0–last), the area under the concentration-time curve extrapolated to infinity (AUC0–∞), the elimination half-life (t1/2), the apparent clearance (CL/F), and the apparent volume of distribution associated with the terminal elimination phase, where F is bioavailability (Vz/F). The PD variables of interest in this study were the parasite reduction ratio (PRR) and parasite clearance half-life. These provide an estimate of the efficacy of an antimalarial treatment; with the former being the ratio of the parasite density decrease over a 48-h period (expressed as the log10 transformed cohort-specific PRR48 [log10 PRR48]). Noncompartmental PK analysis was performed using PKanalix (version 2019R1, Lixoft SAS, Abtony, France). The area under the concentration-time curve was determined using the linear log trapezoidal method in which linear calculation was used before maximum concentration (Cmax) and logarithmic formula for after Cmax. The slope of the terminal elimination phase (λz) was estimated via a linear regression between log concentrations and time. All parameters were summarized using geometric mean or median and range.

[2] = test system: P. falciparum blood-stage malaria parasites; conditions: monotherapy, cited from earlier work
[3] = oral, cohort 1 (n = 8), 200 mg artefenomel plus 100 mg DSM265, plasma, read-out: Cmax, range
[4] = oral, cohort 1 (n = 8), 200 mg artefenomel plus 100 mg DSM265, read-out: AUC0–last, geometric mean
[5] = oral, cohort 1 (n = 8), 200 mg artefenomel plus 100 mg DSM265, read-out: AUC0–last, range
[6] = oral, cohort 1 (n = 8), 200 mg artefenomel plus 100 mg DSM265, read-out: AUC0–∞, geometric mean
[7] = oral, cohort 1 (n = 8), 200 mg artefenomel plus 100 mg DSM265, read-out: AUC0–∞, range
[8] = oral, cohort 1 (n = 8), 200 mg artefenomel plus 100 mg DSM265, read-out: Vz/F (apparent volume of distribution, terminal phase), geometric mean
[9] = oral, cohort 1 (n = 8), 200 mg artefenomel plus 100 mg DSM265, read-out: Vz/F, range
[10] = oral, cohort 1 (n = 8), 200 mg artefenomel plus 100 mg DSM265, read-out: tmax, median
[11] = oral, cohort 1 (n = 8), 200 mg artefenomel plus 100 mg DSM265, read-out: tmax, range
[12] = oral, cohort 2 (n = 5), 200 mg artefenomel plus 50 mg DSM265, plasma, read-out: Cmax, range
[13] = oral, cohort 2 (n = 5), 200 mg artefenomel plus 50 mg DSM265, read-out: AUC0–last, geometric mean
[14] = oral, cohort 2 (n = 5), 200 mg artefenomel plus 50 mg DSM265, read-out: AUC0–last, range
[15] = oral, cohort 2 (n = 5), 200 mg artefenomel plus 50 mg DSM265, read-out: AUC0–∞, geometric mean
[16] = oral, cohort 2 (n = 5), 200 mg artefenomel plus 50 mg DSM265, read-out: AUC0–∞, range
[17] = oral, cohort 2 (n = 5), 200 mg artefenomel plus 50 mg DSM265, read-out: Vz/F (apparent volume of distribution, terminal phase), geometric mean
[18] = oral, cohort 2 (n = 5), 200 mg artefenomel plus 50 mg DSM265, read-out: Vz/F, range
[19] = oral, cohort 2 (n = 5), 200 mg artefenomel plus 50 mg DSM265, read-out: tmax, median
[20] = oral, cohort 2 (n = 5), 200 mg artefenomel plus 50 mg DSM265, read-out: tmax, range
[21] = po, cohort 1 (n = 8), single oral dose 200 mg artefenomel plus 100 mg DSM265, plasma, read-out: Cmax, geometric mean
[22] = po, cohort 2 (n = 5), single oral dose 200 mg artefenomel plus 50 mg DSM265, plasma, read-out: Cmax, geometric mean
[23] = cohort 1 (n = 8), 200 mg artefenomel plus 100 mg DSM265
[24] = cohort 2 (n = 5), 200 mg artefenomel plus 50 mg DSM265

Row | Compound | Cmax [1, 3] [ng/mL] | AUC(0-t) [1, 4] [µg·h/mL] | AUC(0-t) [1, 5] [µg·h/mL] | AUC(0-inf) [1, 6] [µg·h/mL] | AUC(0-inf) [1, 7] [µg·h/mL] | Vd/F [1, 8] [L] | Vd/F [1, 9] [L] | Tmax [1, 10] [h] | Tmax [1, 11] [h] | Cmax [1, 12] [ng/mL] | AUC(0-t) [1, 13] [µg·h/mL] | AUC(0-t) [1, 14] [µg·h/mL] | AUC(0-inf) [1, 15] [µg·h/mL] | AUC(0-inf) [1, 16] [µg·h/mL] | Vd/F [1, 17] [L] | Vd/F [1, 18] [L] | Tmax [1, 19] [h] | Tmax [1, 20] [h] | Cmax [1, 21] [ng/mL] | Cmax [1, 22] [ng/mL] | other results
1 | c1cc([C@H]2CC[C@]3(CC2)OO[C@]2(O3)C3CC4CC(C3)CC2C4)ccc1OCCN1CCOCC1 [Artefenomel] | 150 to 597 | 3.01 | 1.11 to 4.96 | 3.08 | 1.11 to 5.09 | 8900 | 4810 to 16000 | 3 | 2 to 5 | 307 to 522 | 3.25 | 2.66 to 5.7 | 3.32 | 2.68 to 5.91 | 7990 | 4590 to 14300 | 5 | 1 to 6 | 372 | 412 | recrudescence ([2]; single dose 200 mg): recrudescence occurred in all subjects; recrudescence, subjects ([2]; single dose 500 mg): 50%
2 | Cc1cc(Nc2ccc(S(F)(F)(F)(F)F)cc2)n2nc(C(C)(F)F)nc2n1 [DSM265] | 4150 to 6880 | 434 | 329 to 502 | 514 | 360 to 634 | 28 | 22 to 42 | 2 | 1 to 3 | 2150 to 4340 | 232 | 209 to 281 | 271 | 240 to 309 | 26 | 19 to 34 | 2 | 1 to 2 | 5440 | 3580 | CL/F (apparent clearance), geometric mean [1, 23]: 0.19 L/h; CL/F, range [1, 23]: 0.16 to 0.28 L/h; CL/F (apparent clearance), geometric mean [1, 24]: 0.18 L/h; CL/F, range [1, 24]: 0.16 to 0.21 L/h; half-life ([1]; oral, cohort 1 (n = 8), 200 mg artefenomel plus 100 mg DSM265, read-out: t1/2 (elimination half-life), geometric mean (converted)): 100 h; half-life ([1]; oral, cohort 1 (n = 8), 200 mg artefenomel plus 100 mg DSM265, read-out: t1/2, range): 76 to 185 h; half-life ([1]; oral, cohort 2 (n = 5), 200 mg artefenomel plus 50 mg DSM265, read-out: t1/2 (elimination half-life), geometric mean (converted)): 97 h; half-life ([1]; oral, cohort 2 (n = 5), 200 mg artefenomel plus 50 mg DSM265, read-out: t1/2, range): 75 to 134 h; parasite clearance half-life ([2]; single dose 150 mg): 9.4 h; recrudescence ([2]; single dose 150 mg): recrudescence occurred in all subjects; parasite clearance half-life ([2]; single dose 400 mg): 5.2 h; recrudescence ([2]; single dose 400 mg): no recrudescence occurred
